In patent US20260132165A1, “MODIFIED NUCLEOSIDE ANALOGUE AND USE THEREOF, AND NUCLEOSIDE ANALOGUE-CONTAINING DOUBLE-STRANDED OLIGONUCLEOTIDE AND USE THEREOF” (RIGERNA THERAPEUTICS (BEIJING) CO., LTD., priority 2023, published 2026):

Assays:
target gene SOD1 [1] = assay: Test Example 10: inhibitory activity on SOD1 in mouse adipose and heart tissues by different routes of administration; format: in vivo, C57BL/6j mice; conditions: D14; for inhibitory activity by different routes of administration: subcutaneous vs tail vein injection, same dose 5 mg/kg; for Subcutaneous % Mean value of inhibition rate: subcutaneous administration 5 mg/kg; for Intravenous % Mean value of inhibition rate: tail vein injection 5 mg/kg
Procedure: (§1) RNA extraction: the above tissue samples were taken out from the RNAlater, and smashed for 60 s in Tissuelyser type II full-automatic tissue homogenizer, and total RNAs of various tissue samples were extracted using the full-automatic nucleic acid extraction instrument and the nucleic acid extraction kit from Zhejiang Hanwei Science and Technology Co. Ltd. according to methods described in instructions.
(§2) Reverse transcription reaction: 1 μg of the extracted total RNAs of the tissue samples were taken, and configured into 20 μL of reverse transcription system according to a method described in kit instructions by using a reverse transcription kit (Reverse Transcription System, A3500) from Promega Corporation and selecting Oligo (dT)15 reverse transcription primers, and the reverse transcription reaction was completed. After the reaction was ended, 80 μL of RNase-Free water was added into the reverse transcription system to provide cDNA solution for Real-time PCR detection.
(§3) Real-time PCR detection: 20 μL of Real-time PCR reaction system per PCR detection well was configured according to a method described in kit instructions using SYBR™ Select Master Mix (Catalog number: 4472908) reagent from ABI company. Each detection system contained 5 μL of cDNA template obtained from the above reverse transcription reaction, 10 μL of SYBR™ Select Master Mix, 0.5 μL of 10 μM upstream primers, 0.5 μL of 10 μM downstream primers, and 4 μL of RNase-Free H2O. The configured reaction system was subjected to Real-time PCR amplification on ABI StepOnePlus PCR instrument by a three-step method, wherein an amplification procedure was pre-denaturation at 95° C. for 10 min, then denaturation at 95° C. for 30 s, annealing at 60° C. for 30 s, and extension at 72° C. for 30 s; and processes of denaturation, annealing, and extension were repeated for 40 cycles. Gene expression differences were calculated by the ΔΔCt method after completion of the procedure.
(§4) In the real-time fluorescence quantitative PCR method, relative quantitative calculation of remaining expression level and inhibition rate of gene mRNA of interest in various test groups was performed by the ΔΔCt method, and the calculation method is as follows:
(§5) The present test example evaluated, by an evaluation method for inhibitory activity on a target gene in mice, the inhibitory activity of siRNA sequence RZ899090 with the sense strand with the NM073 conjugation at Position 4 on the target gene SOD1 of interest in mice.
6-8 Week-old C57BL/6j mice were randomly grouped by body weight, 5 per group, 4 groups in total. Mice in one of the groups were dosed with the above siRNA conjugate by tail vein injection, with an administration dose of 5 mg/kg, and an administration volume of 150 μL. One group was dosed with the above siRNA conjugate by subcutaneous administration, with an administration dose of 5 mg/kg, and an administration volume of 5 ml/kg. The other two groups were PBS control groups, and were respectively administered with the same volume of siRNA conjugate-free PBS solution by tail vein injection and subcutaneous administration. The day of administration was recorded as D0, and the mice were sacrificed on D14 after administration. Paragonadal fat and heart tissues were respectively taken and stored in the RNAlater. RNA extraction, reverse transcription, and real-time fluorescence quantitative detection were performed on various tissues according to the above method, and gene expression differences were calculated by the above ΔΔCt method.

target gene SOD1 [2] = assay: Test Example 11: inhibitory activity at different administration doses on SOD1 in mouse adipose and heart tissues; format: in vivo, C57BL/6j mice; conditions: D14; for 0.5 mg/kg % Mean value of inhibition rate: tail vein injection 0.5 mg/kg; for 2 mg/kg % Mean value of inhibition rate: tail vein injection 2 mg/kg; for 5 mg/kg % Mean value of inhibition rate: tail vein injection 5 mg/kg; for dose dependency of inhibitory activity: 0.5, 2, 5 mg/kg tail vein
Procedure: as §1, §2, §3, §4
as §5, with “4 at different administration doses” for “4”
6-8 Week-old C57BL/6j mice were randomly grouped by body weight, 5 per group, 4 groups in total. Mice were administered with the above siRNA conjugate by tail vein injection, wherein mice in one group were administered with the above siRNA conjugate at an administration dose of 5 mg/kg, mice in one group were administered with the above siRNA conjugate at an administration dose of 2 mg/kg, and one group was administered with the above siRNA conjugate at an administration dose of 0.5 mg/kg, all administration volumes being 150 μL. The remaining group acted as PBS control group and was administered with the same volume of siRNA conjugate-free PBS solution. The day of administration was recorded as D0, and the mice were sacrificed on D14 after administration. Paragonadal fat and heart tissues were respectively taken and stored in the RNAlater. RNA extraction, reverse transcription, and real-time fluorescence quantitative detection were performed on various tissues according to the above method, and gene expression differences were calculated by the above ΔΔCt method.

target gene SOD1 [3] = assay: Test Example 12: inhibitory activity of lipid conjugated siRNA sequence on SOD1 in mouse eyes (intravitreal administration); format: in vivo, C57BL/6J mice; conditions: D14
Procedure: as §1, §2, §3, §4
as §5, with “RZ899091” for “RZ899090”, “NM074” for “NM073”, “4 and siRNA reference sequence RX899121 without vector conjugation” for “4”
6-8 Week-old C57BL/6J mice were randomly grouped by body weight, 5 in each group and 3 groups in total. Mice in each group were administered with the above siRNA conjugate by intravitreal administration to right eyes of the mice, with an administration dose of 7.5 μg per mouse, and an administration volume of 2 μL. PBS control group was administered with the same volume of siRNA conjugate-free PBS solution. The day of administration was recorded as D0, and the mice were sacrificed at D14 after administration. Administration-side ocular retina, choroid, cornea, sclera and other tissues were respectively taken and stored in the RNAlater. RNA extraction, reverse transcription, and real-time fluorescence quantitative detection were performed on various tissues according to the above method, and gene expression differences were calculated by the above ΔΔCt method.

[4] = mouse adipose tissues (paragonadal fat)

| Substance | inhibitory activity by different routes of administration (target gene SOD1 [1]; adipose tissues) | inhibitory activity by different routes of administration (target gene SOD1 [1]; heart) | Subcutaneous % Mean value of inhibition rate (target gene SOD1 [1]; [4]) [%] | Intravenous % Mean value of inhibition rate (target gene SOD1 [1]; [4]) [%] | Subcutaneous % Mean value of inhibition rate (target gene SOD1 [1]; mouse heart tissues) [%] | Intravenous % Mean value of inhibition rate (target gene SOD1 [1]; mouse heart tissues) [%] | 0.5 mg/kg % Mean value of inhibition rate (target gene SOD1 [2]; [4]) [%] | 2 mg/kg % Mean value of inhibition rate (target gene SOD1 [2]; [4]) [%] | 5 mg/kg % Mean value of inhibition rate (target gene SOD1 [2]; [4]) [%] | dose dependency of inhibitory activity (target gene SOD1 [2]; mouse adipose tissues) | dose dependency of inhibitory activity (target gene SOD1 [2]; mouse heart tissues) | 0.5 mg/kg % Mean value of inhibition rate (target gene SOD1 [2]; mouse heart tissues) [%] | 2 mg/kg % Mean value of inhibition rate (target gene SOD1 [2]; mouse heart tissues) [%] | 5 mg/kg % Mean value of inhibition rate (target gene SOD1 [2]; mouse heart tissues) [%] | Choroid % Mean value of inhibition rate (target gene SOD1 [3]; choroid, intravitreal, right eye, 7.5 μg per mouse) [%] | Cornea and sclera % Mean value of inhibition rate (target gene SOD1 [3]; cornea and sclera, intravitreal, right eye, 7.5 μg per mouse) [%] | Kidney % Mean value of inhibition rate (target gene SOD1 [3]; kidney, intravitreal, right eye, 7.5 μg per mouse) [%] | Liver % Mean value of inhibition rate (target gene SOD1 [3]; liver, intravitreal, right eye, 7.5 μg per mouse) [%] | inhibitory activity compared with the reference sequence RX899121 without vector (target gene SOD1 [3]; mouse retina and choroid, intravitreal 7.5 μg per mouse) | Retina % Mean value of inhibition rate (target gene SOD1 [3]; retina, intravitreal, right eye, 7.5 μg per mouse) [%] |
| --- | --- | --- | --- | --- | --- | --- | --- | --- | --- | --- | --- | --- | --- | --- | --- | --- | --- | --- | --- | --- |
| RZ899090: siRNA sequence with the sense strand with the NM073 (C18) conjugation at Position 4; SEQ ID NO: 15 / 23 (sense UUUNAAUCCUCACUCUAAA; antisense UUUAGAGUGAGGAUUAAAAUG; NM073 (C18) conjugate at sense position 4; modified_base 1..2 OTHER; 2'-methoxy and 5'-thiophosphate modified nucleotides; modified_base 3 OTHER; 2'-methoxy modified nucleotide; modified_base 4 OTHER; n is the nucleotide analog NM073 as described in the disclosure.; modified_base 5..6 OTHER; 2'-methoxy modified nucleotides; modified_base 7..10 OTHER; 2'-fluoro modified nucleotides; modified_base 11..19 OTHER; modified_base 1 OTHER; 2'-methoxy and 5'-thiovinylphosphonate modified nucleotide; modified_base 2 OTHER; 2'-fluoro and 5'-thiophosphate modified nucleotide; modified_base 3..5 OTHER; …) | comparable inhibitory activity in the fat | comparable inhibitory activity in heart | 77.05 | 80.33 | 73.71 | 76.57 | 45.65 | 70.90 | 83.09 | distinct dose dependency | distinct dose dependency | 30.45 | 62.38 | 79.04 |  |  |  |  |  |  |
| RZ899091: siRNA sequence with the sense strand with the NM074 (C20) conjugation at Position 4; SEQ ID NO: 16 / 23 (sense UUUNAAUCCUCACUCUAAA; antisense UUUAGAGUGAGGAUUAAAAUG; NM074 (C20) conjugate at sense position 4; modified_base 1..2 OTHER; 2'-methoxy and 5'-thiophosphate modified nucleotides; modified_base 3 OTHER; 2'-methoxy modified nucleotide; modified_base 4 OTHER; n is the synthetic nucleotide analog NM074 as described in the disclosure.; modified_base 5..6 OTHER; 2'-methoxy modified nucleotides; modified_base 7..10 OTHER; 2'-fluoro modified nucleotides; modified_base 11..19 OTHER; 2'-methoxy modified ; modified_base 1 OTHER; 2'-methoxy and 5'-thiovinylphosphonate modified nucleotide; modified_base 2 OTHER; 2'-fluoro and 5'-thiophosphate modified …) |  |  |  |  |  |  |  |  |  |  |  |  |  |  | 33.54 | −2.05 | 6.51 | −2.05 | superior inhibitory activity | 54.98 |
